Consider eleven compounds from patent US8063018B2, “Bivalent thrombin binding molecules comprising linkers” (National Research Council of Canada, priority 2004, dated 2011).

The target in assay [1] is T1, thrombin (Homo sapiens, UniProt P00734). Put plainly: Fibrinogen clotting assay catalyzed by thrombin. The class given is biochemical. The note with it: for IC50: IC50, nM (37° C.), 37° C., concentration needed to double the clotting time; for Clotting onset time: 150 nM peptide, 0.6 nM thrombin.
Assay [2] concerns the target T1, thrombin. Put plainly: Kinetic amidolytic assay with chromogenic substrate S-2238 (inhibition constants). The class given is biochemical. As for the experimental part:
Peptides were freeze-dried and their identity was confirmed by ion-spray mass spectrometry. Clotting assays were carried out by use of the protocols described previously (DiMaio and others, 1990, 21698-21703; Witting and others, 1992, 737-743). The assay employs bovine plasma fibrinogen dissolved at 0.1% in 50 mM Tris-Cl, 100 mM NaCl, 0.1% PEG-8000 at pH 7.6 (i.e. the clotting buffer). Each assay mixture contained a certain concentration of the peptide, and the reaction was started by the addition of human thrombin to a final concentration of 0.6-1.2 nM. Optical absorbance increase at 420 nm caused by fibrin clot formation was measured at 25° C. or 37° C. using the Spectramax plate reader. The onset clotting time was determined as an intersection of the baseline and the extrapolated linear portion of the OD change curve. The concentration of a peptide needed to double the clotting time was defined as IC50 (DiMaio and others, 1990, 21698-21703). Kinetic amidolytic curves were obtained in clotting buffer at 25° C. using eight inhibitor concentrations and three to five concentrations of the chromogenic substrate S-2238 (Chromogenix) (DiMaio and others, 1990, 21698-21703). Inhibition constants were extracted from Lineweaver-Burk equation by using weighted linear regression. Errors in Ki determination were estimated by using Monte-Carlo sampling with 1-3% variance of the experimental points. Peptide concentrations were determined spectrophotometrically using predicted extinction coefficients at 278 nm (Gill and von Hippel, 1989, 319-326).

Assay [3] deals with α-thrombin (Homo sapiens, UniProt P00734). Put plainly: Effect of calcium on inhibition of the amidolytic activity of thrombin (S-3266). Set-up: chromogenic substrate proteolysis by human α-thrombin. Particulars: 50 and 100 mM calcium, 0.6 nM thrombin, 25° C. It is filed as biochemical.
The target of assay [4] is T1, thrombin. The note with it: cited from earlier work.
Assay [5] in a line: Calcium binding followed by proton NMR. Particulars: CaCl2 titration, pH 5.5. As for the experimental part:
Looking at the results in FIG. 6, panels a, b, c, d show changes in the proton NMR spectra of Ac-[…]NH2 (SEQ. ID. NO. 109) (P3230, panels a, b) and Ac-[…]NH2 (SEQ. ID. NO. 110) (P3231, panels c, d) upon the addition to the initial ˜450 μL of the corresponding peptide in 20 mM sodium acetate-d3 buffer, pH 5.5, containing 10% D2O, of 1 μL (final CaCl2 concentration ˜0.22 mM), additional 2 μL (final CaCl2 concentration ˜0.66 mM), additional 10 μL (final CaCl2 concentration ˜2.8 mM) of 100 mM CaCl2, and additional 10 μL (final CaCl2 concentration ˜23.9 mM) of 1 M CaCl2. Panels e and f show changes in the proton NMR spectrum of a disulfide-linked peptide Bbs-Arg-(D-Pip)-Gly-Cys . . . […](SEQ. ID. No. 16) upon the addition to the initial volume of ˜450 μL of 1 μL (final CaCl2 concentration ˜0.22 mM), additional 2 μL (final CaCl2 concentration ˜0.66 mM) of 100 mM CaCl2, and additional 10 μL (final CaCl2 concentration ˜22.2 mM) of 1 M CaCl2.
An inhibitor with a linker known to bind specific metal ions will be affected by the presence of these ions in solution. Two peptides homologous to the calcium-binding loop of troponin C were designed and established that they bind calcium ions in solution. The peptides have the following sequences—Ac-[…]NH2 (P3230) (SEQ. ID. NO. 109) and Ac-[…]NH2 (P3231) (SEQ. ID. NO. 110). The peptides were synthesized, purified and their identity was confirmed as described in Example 1. They were tested for calcium binding by use of NMR. For this both freeze-dried peptides were reconstituted at a concentration of approximately 0.5 mM in 20 mM sodium acetate-d3 buffer, pH 5.5, containing 10% D2O. Proton spectra of the peptides were recorded at 800 MHz, 15° C., before and after addition of increasing amounts of 0.1 and 1 M stock solutions of CaCl2 in the same buffer. FIGS. 6a,b,c,d show changes in the proton NMR spectra of these two peptides upon the addition to the initial volume of ˜450 μL of 1 μL (final CaCl2 concentration ˜0.22 mM), additional 2 μL (final CaCl2 concentration ˜0.66 mM), additional 10 μL (final CaCl2 concentration ˜2.8 mM) of 100 mM CaCl2, and additional 10 μL (final CaCl2 concentration ˜23.9 mM) of 1 M CaCl2. The changes in the spectra confirm binding of calcium with affinity in mM range.
One of the two designed peptides was used to construct a calcium-responsive bivalent thrombin inhibitor. The disulfide-linked bivalent thrombin inhibitor (corresponding to SEQ. ID. NO. 91) prepared by cross-oxidation of cysteine thiol groups from two peptides Bbs-Arg-(D-Pip)-Gly-Cys (SEQ. ID. NO. 4) and […](SEQ. ID. NO. 114) (preparation described in Example 1) was tested for its ability to bind calcium and inhibit amidolytic reaction in the presence and absence of calcium. […]

For assay [6], the target named is T2, CaCdc42 (R150K) (Candida albicans, UniProt P0CY33, R150K).
T2 construct: made in house; host or cells: E. coli BL21
T2 sequence (P0CY33 1-178 R150K): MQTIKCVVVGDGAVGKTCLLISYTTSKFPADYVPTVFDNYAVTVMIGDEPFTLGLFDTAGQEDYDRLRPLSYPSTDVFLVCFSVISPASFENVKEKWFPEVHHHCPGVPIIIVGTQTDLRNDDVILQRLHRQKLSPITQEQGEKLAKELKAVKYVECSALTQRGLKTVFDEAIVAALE
In words: Fluorescence titration of sNBD-labeled, GMPPCP-loaded CaCdc42 (R150K) with CRIB peptides. It is filed as binding. As for the experimental part: In order to construct a bivalent peptide ligand for Candida Cdc42 (CaCdc42) (with a suitable linker) (FIG. 12), the binding affinities of component peptides derived from the CRIB domains of Candida Cla4 and Step 20 were determined. Residue K150 of the R150K CaCdc42 mutant was covalently modified with the fluorescent probe, sNBD (Molecular Probes, Eugene, Oreg.), essentially as described by Nomanbhoy and Cerione (Nomanbhoy, T. and Cerione, R. A., 1999, 15878-15884.). The stoichiometry of the fluorescent probe per protein molecule was estimated at 1.13, based on protein concentration determined with ε280nm=13,610 M^−1 cm^−1 (Gill, S. C. and von Hippel, P. H., 1989, 319-326), and using the absorbance of the sNBD moiety of ε463nm=22,000 M^−1 cm^−1. Interaction of the CRIB peptides with sNBD-labeled CaCdc42 was monitored using extrinsic fluorescence measurements with a Hitachi F-2500 fluorescence spectrophotometer. Samples of sNBD-labeled, activated CaCdc42 were added in the assay buffer (50 mM phosphate, pH 6.8, 50 mM NaCl and 5 mM MgCl2) to a cuvette being continuously stirred. The protein concentration was 1 μM. Individual CRIB peptide dissolved in the same assay buffer was added drop-wise to the cuvette. The mixture was excited at 488 nm with an excitation slit width of 5 nm. The emission spectra were scanned from 510 nm to 590 nm. The fluorescence emission intensity at the emission maximum 545 nm was determined from each spectrum and the final value was obtained by averaging the values from five scans of the same sample. […]
The Kd values for the binding of the CRIB peptides to sNBD-labeled activated CaCdc42 were determined by fitting the fluorescence titration data to a simple bimolecular association model as described by Leonard et al (Leonard, D. A., and others, 1997, 1173-1180). […]
[formula] The fluorescence intensity (F) is related to the dissociation constant, Kd as follows,
[formula] where F0 and Ft are the fluorescence intensities at the starting and end points of the titration, respectively. […] Average Kd values were determined from multiple independent measurements.

Several values for one entry are separate records, joined by “and”; a condition that tells them apart may be missing. Identical values can stand only once. Like-named read-outs stand apart in the source and are kept apart here. Non-standard residues stand in square brackets, D forms with d. Primed or numbered codes have the meaning given here. No end group written: not given here. *: point of attachment. Benzenesulfonyl(4-tBu) = CC(C)(C)c1ccc(S(=O)(=O)*)cc1; dPip′ = not defined here

On to `CC[C@H](C)[C@H](NC(=O)[C@H](CCC(=O)O)NC(=O)[C@H](CCC(=O)O)NC(=O)[C@H](Cc1ccccc1)NC(=O)[C@H](CC(=O)O)NC(=O)CNC(=O)[C@H](CO)NC(=O)CNC(=O)[C@H](CO)NC(=O)CNC(=O)[C@H](CO)NC(=O)CNC(=O)[C@H](CO)NC(=O)CNC(=O)[C@H]1CCCCN1C(=O)[C@H](CCCNC(=N)N)NS(=O)(=O)c1ccc(C(C)(C)C)cc1)C(=O)N1CCC[C@H]1C(=O)N[C@@H](CCC(=O)O)C(=O)N[C@@H](CCC(=O)O)C(=O)N[C@@H](Cc1ccc(O)cc1)C(=O)N[C@@H](CC(C)C)C(=O)N[C@@H](CCC(N)=O)C(=O)O` [P3150], for which, in assay [1], the IC50 (as a rule, the point on the concentration scale where inhibition reaches its midpoint) was 0.5 ± 0.1 nM. Further, in assay [2] (25° C., S-2238, clotting buffer, read-out: KI, nM (25° C.)), the Ki (in general, a dissociation constant, usually derived from enzyme kinetics or from competition with a known ligand) was determined as 0.5 ± 0.2 nM. In addition, in assay [3], the “Effect of calcium on inhibition potency” value was “no visible effect”.

For `CC[C@H](C)[C@H](NC(=O)[C@H](CC(C)C)NC(=O)[C@H](CCCCN)NC(=O)[C@H](CCC(N)=O)NC(=O)[C@H](CCC(=O)O)NC(=O)CNC(=O)[C@H]1CCCCN1C(=O)[C@H](CCCNC(=N)N)NS(=O)(=O)c1ccc(C(C)(C)C)cc1)C(=O)N[C@@H](CO)C(=O)N[C@@H](CCC(=O)O)C(=O)N[C@@H](CCC(=O)O)C(=O)N[C@@H](CC(=O)O)C(=O)N[C@@H](CC(C)C)C(=O)NCC(=O)N[C@@H](CC(=O)O)C(=O)N[C@@H](Cc1ccccc1)C(=O)N[C@@H](CCC(=O)O)C(=O)N[C@@H](CCC(=O)O)C(=O)N[C@H](C(=O)N1CCC[C@H]1C(=O)N[C@@H](CCC(=O)O)C(=O)N[C@@H](CCC(=O)O)C(=O)N[C@@H](Cc1ccc(O)cc1)C(=O)N[C@@H](CC(C)C)C(=O)N[C@@H](CCC(N)=O)C(=O)O)[C@@H](C)CC` [P3182], in assay [1] (150 nM inhibitor, ~1.2 μM 9E10), the “Effect of antibody 9E10 on inhibitory potency” value is “reversed the inhibitory potency”. The Clotting onset time result in assay [1] (1.2 μM anti-c-myc antibody 9E10) is given as “approximately 230 s”; in assay [1] (no antibody), “approximately 530 s”. Also, the IC50 in assay [1] is around 25 nM. The compound further registered an inhibitory constant (Ki) in assay [2] of 66 ± 13 nM.

In the case of “Bbs-Arg-(D-Pip)-Gly ({Benzenesulfonyl(4-tBu)}-Arg-[dPip′]-Gly) [H1]”, in assay [4] (monovalent moiety alone), the “KI of the constituent binding moiety” value was “low μM range”.

In the case of “Bbs-Arg-(D-Pip)-Gly-Cys . . . Cys-Asp-Lys-Asn-Ala-Asp-Gly-Trp-Ile-Asp-Asn-Gly-Asp-Phe-Glu-Glu-Ile-Pro-Glu-Glu-Tyr-Leu-Gln (CDKNADGWIDNGDFEEIPEEYLQ; not fully specified (N-terminus); printed as Bbs-Arg-(D-Pip)-Gly-Cys . . . Cys-Asp-Lys-Asn-Ala-Asp-Gly-Trp-Ile-Asp-Asn-Gly-Asp-Phe-Glu-Glu-Ile-Pro-Glu-Glu-Tyr-Leu-Gln; also: N-terminal part Bbs-Arg-(D-Pip)-Gly-Cys . . . precedes Cys1, intervening residues not given here) [3243-3255]”, the “Affinity of calcium binding” value in assay [5] was “mM range”. Besides, the “Effect of calcium on inhibition potency” value in assay [3] (listed as SEQ. ID. NO. 91) is recorded as “altered inhibition”; in assay [3] (listed as calcium-responsive disulfide-linked bivalent thrombin inhibitor), “decreased”.

As for DKNADGWIDNGDFE [P3231], the “Affinity of calcium binding” value in assay [5] is given as “mM range”.

DKNADGWIDNGDFE [SEQ. ID. NO. 17]: the “Affinity of calcium binding” value in assay [5] is reported as “millimolar range”.

As to DKNADGWIDNGEFE [P3230], the “Affinity of calcium binding” value in assay [5] was “mM range”.

For “EVNIKISTPFNAKHLAHVGIDDNGNFTGLPDTWKSLLQHSKIT [mCst20-cCla4]”, the dissociation constant Kd (in general, the free concentration of one partner at which half of the binding sites on the other are occupied at equilibrium, for simple one-to-one binding) in assay [6] came out at 2640 ± 200 nM.

Take “EVNIKISTPFNAKHLAHVGIDDNGSYTGLPIEWERLLSASGIT [eCst20]”: binding in assay [6] was characterised by a dissociation constant (Kd) of 46 nM.

“GGNSGFPGPINFTHKVHVGFDRKSLTIYAQVQKNFTGLPDTWKSLLQHSKIT [eCla4-SLAM, GGNSGFPGPINFTHKVHVGFDRKSLTIYAQVQKNFTGLPDTWKSLLQHSKIT]” returned an equilibrium dissociation constant (Kd) in assay [6] of 127 ± 70 nM.

Turning to “WDPRPQRHNDGDFEEIPEEYLQ [SEQ. ID. NO. 18]”, in assay [4] (subject of another patent application, read-out: KI for thrombin inhibition), the Ki was ~17 nM and 17 nM.
